US8785594B2, “Glycoproteins and glycosylated cells and a method for the preparation of the same” (Glycom A/S, priority 2007, dated 2014)

Test system: human breast cancer-cell line
Experiment: Flow cytometry with fluorescent labeled-lectin of modified cells (Examples 8-10)
Assay type: cell-based
Details: 25 mg, PBS, 3 h at 37° C.
Protocol: α-Gal epitope-cyclic carbamate 6 (disaccharide) (25 mg) and human breast cancer-cell line 7 (2×10^6 number cell) were mixed in PBS buffer (5 mL) (see FIG. 3). The mixture was kept for 3 h at 37° C., and then the mixture was subjected to centrifugation to separate the cells from the medium.
α-Gal epitope-carbamate 6 (disaccharide) (25 mg) and human breast cancer-cell line 7 (1×10^6 number cell) were mixed in PBS buffer (5 mL) (see FIG. 3). The mixture was kept for 3 h at 37° C., and then the mixture was subjected to centrifugation to separate the cells from the medium.
α-Gal epitope-carbamate 6 (disaccharide) (25 mg) and human breast cancer-cell line 7 (5×10^5 number cell) were mixed in PBS buffer (5 mL) (see FIG. 3). The mixture was kept for 3 h at 37° C., and then the mixture was subjected to centrifugation to separate the cells from the medium.

Measured: Modification of cells shown with fluorescent labeled-lectin

O=C1NC2OC(CO)C(O)C(OC3OC(CO)C(O)C(O)C3O)C2O1 (stereo not drawn) [Compound 6, α-Gal epitope-cyclic carbamate]
modification has been proven: 1×10^6 cells | 2×10^6 cells | 5×10^5 cells
